Measurements taken from article PMC11327210, “A first-in-human phase I trial of daily oral zelenirstat, a N-myristoyltransferase inhibitor, in patients with advanced solid tumors and relapsed/refractory B-cell lymphomas” (Investigational New Drugs, 2024).
Where two headings read alike, the source gives them in different places.

Tests used:
[1] = system: patients with advanced solid tumors and relapsed/refractory (R/R) B-cell lymphomas; test: Phase I dose escalation: safety, DLT, MTD/RP2D (NCI-CTCAE v5.0); format: in vivo; details: for Grade ≥ 3 treatment-related adverse events: Hypophosphatemia / Grade ≥ 3 treatment-related adverse events: Metabolism and nutrition disorders / Grade ≥ 3 treatment-related adverse events: Nausea / No. of pts with Gr ≥ 3 TRAEs: daily oral
Description: A standard 3 + 3 design was used to assess for MTD and establish RP2D according to a pre-determined dose-escalation schema (Table 1). There was no intra-patient dose escalation. The MTD was defined as the dose level below the cohort in which 2 or more patients experienced a first cycle, zelenirstat attributable, dose-limiting toxicity (DLT), and the MTD required confirmation in at least 6 patients.
DLT was defined as any of the following: Grade (Gr) 4 thrombocytopenia, Gr 3 thrombocytopenia with bleeding, Gr 4 neutropenia ≥ 7 days, febrile neutropenia, clinically significant ≥ Gr 3 non-hematologic toxicity, or any significant toxicity warranting a withhold of zelenirstat. […] Toxicity was graded according to the National Cancer Institute Common Toxicity Criteria for Adverse Events (NCI-CTCAE) version 5.0.
For dose escalation, patients received daily oral zelenirstat on 28-day cycles. It was administered as 10 mg and 70 mg capsules, with instructions to take on an empty stomach each morning with 250 ml of tap water. Patients received zelenirstat until progressive disease, unacceptable toxicity, or withdrawal of consent.
Baseline imaging and hematology and blood chemistry were obtained within 4 weeks and 1 week of study entry, respectively. Baseline screening included a complete medical history, physical examination, assessment of ECOG performance status, and body weight. CT imaging was used for advanced solid tumors and B-cell NHL; PET-CT was optional for B-cell NHL. Weekly complete blood counts with white blood cell differentiation and blood chemistries were drawn for the first cycle, biweekly for cycle 2, and then prior to each 28-day cycle. Adverse events were evaluated weekly in the first cycle, biweekly for cycle 2, and before each subsequent cycle using the NCI-CTCAE version 5.0.

[2] = human, in vivo
Description: (§1) Peripheral blood samples were collected over six time points in the first 8 h of Cycle 1, Day 1 (C1D1), and again on C1D15. Pre-treatment Day 1 levels were obtained with every subsequent cycle.

[3] = system: cultured human cancer cells; set-up: method as in PMID 33093447; details: wide variety of cultured human cancer cells; cited from earlier work
[4] = system: cell line derived xenografts from breast carcinomas; set-up: method as in PMID 33398478; details: mice-bearing established human tumor xenografts; cited from earlier work
[5] = system: cell line derived xenografts from lung carcinomas; set-up: method as in Pacylex Inc., data on file; details: mice-bearing established human tumor xenografts, ref Pacylex Inc., data on file; cited from earlier work
[6] = system: patient derived xenograft models of refractory DLBCL; set-up: method as in PMID 33093447; details: cited from earlier work
[7] = system: cell line and patient derived xenograft models of AML; set-up: method as in doi:10.1182/blood-2022-170544; details: cited from earlier work
human AML = system: human AML; set-up: method as in doi:10.1182/blood-2022-170544; details: murine tail-vein injection models of human AML; cited from earlier work
[8] = set-up: method as in Pacylex, data on file; details: preclinical models; ref Pacylex, data on file; cited from earlier work
[9] = set-up: method as in Pacylex, data on file; details: preclinical models; ref Pacylex, data on file; cited from earlier work; remark: listed apart in the source
CYP3A4 = system: CYP3A4; set-up: method as in Pacylex, data on file; details: preclinical models; ref Pacylex, data on file; cited from earlier work
off-target kinase = system: off-target kinase; set-up: method as in doi:10.1182/blood-2019-124934; details: cited from earlier work
[10] = set-up: method as in doi:10.1182/blood-2019-124934; details: multiple daily oral administration; cited from earlier work
[11] = system: ADP-ribosylation factor 6 (ARF6); set-up: method as in Pacylex, data on file; details: cultured colon cancer cells; ref Pacylex, data on file; cited from earlier work
rats = details: rat, in vivo; cited from earlier work
dogs = details: dog, in vivo; cited from earlier work
[12] = Plasma pharmacokinetics in phase I patients (UPLC-MS/MS); details: beyond Day 15
Description: as §1

[13] = oral once daily, 28-day cycles, patients

Compound: Cc1c(NS(=O)(=O)c2c(Cl)cc(-c3ccnc(N4CCNCC4)c3)cc2Cl)c(CC(C)C)nn1C [zelenirstat]
- Grade ≥ 3 treatment-related adverse events: Hypophosphatemia ([1]; 20 mg (N = 3)): 0 n, %
- Grade ≥ 3 treatment-related adverse events: Metabolism and nutrition disorders ([1]; 20 mg (N = 3)): 0 n, %
- Grade ≥ 3 treatment-related adverse events: Nausea ([1]; 20 mg (N = 3)): 0 n, %
- No. of pts with Gr ≥ 3 TRAEs ([1]; 20 mg (N = 3)): 0 n, %
- Grade ≥ 3 treatment-related adverse events: Hypophosphatemia ([1]; 40 mg (N = 3)): 0 n, %
- Grade ≥ 3 treatment-related adverse events: Metabolism and nutrition disorders ([1]; 40 mg (N = 3)): 0 n, %
- Grade ≥ 3 treatment-related adverse events: Nausea ([1]; 40 mg (N = 3)): 0 n, %
- No. of pts with Gr ≥ 3 TRAEs ([1]; 40 mg (N = 3)): 0 n, %
- Grade ≥ 3 treatment-related adverse events: Hypophosphatemia ([1]; 70 mg (N = 3)): 0 n, %
- Grade ≥ 3 treatment-related adverse events: Metabolism and nutrition disorders ([1]; 70 mg (N = 3)): 0 n, %
- Grade ≥ 3 treatment-related adverse events: Nausea ([1]; 70 mg (N = 3)): 0 n, %
- No. of pts with Gr ≥ 3 TRAEs ([1]; 70 mg (N = 3)): 1 (33) n, %
- Grade ≥ 3 treatment-related adverse events: Hypophosphatemia ([1]; 100 mg (N = 5)): 0 n, %
- Grade ≥ 3 treatment-related adverse events: Metabolism and nutrition disorders ([1]; 100 mg (N = 5)): 0 n, %
- Grade ≥ 3 treatment-related adverse events: Nausea ([1]; 100 mg (N = 5)): 0 n, %
- No. of pts with Gr ≥ 3 TRAEs ([1]; 100 mg (N = 5)): 0 n, %
- Grade ≥ 3 treatment-related adverse events: Hypophosphatemia ([1]; 140 mg (N = 3)): 0 n, %
- Grade ≥ 3 treatment-related adverse events: Metabolism and nutrition disorders ([1]; 140 mg (N = 3)): 0 n, %
- Grade ≥ 3 treatment-related adverse events: Nausea ([1]; 140 mg (N = 3)): 0 n, %
- No. of pts with Gr ≥ 3 TRAEs ([1]; 140 mg (N = 3)): 0 n, %
- Grade ≥ 3 treatment-related adverse events: Hypophosphatemia ([1]; 210 mg (N = 7)): 0 n, %
- Grade ≥ 3 treatment-related adverse events: Metabolism and nutrition disorders ([1]; 210 mg (N = 7)): 0 n, %
- Grade ≥ 3 treatment-related adverse events: Nausea ([1]; 210 mg (N = 7)): 0 n, %
- No. of pts with Gr ≥ 3 TRAEs ([1]; 210 mg (N = 7)): 0 n, %
- Grade ≥ 3 treatment-related adverse events: Hypophosphatemia ([1]; 280 mg (N = 5)): 1 (20) n, %
- Grade ≥ 3 treatment-related adverse events: Metabolism and nutrition disorders ([1]; 280 mg (N = 5)): 1 (20) n, %
- Grade ≥ 3 treatment-related adverse events: Nausea ([1]; 280 mg (N = 5)): 1 (20) n, %
- No. of pts with Gr ≥ 3 TRAEs ([1]; 280 mg (N = 5)): 4 (80) n, %
- evaluable patients with first cycle dose-limiting gastrointestinal toxicities ([1]; 280 mg daily cohort): Three
- neuropathy ([1]; dose cohorts up to and including 210 mg): No neuropathy was reported
- Gr 2 thrombocytopenia, patients ([1]; dose cohorts up to and including 210 mg, resolved despite continuation at full dose): 12%
- maximum tolerated dose (MTD) [1, 13]: 210 mg
- recommended phase 2 dose (RP2D) [1, 13]: 210 mg
- drug-induced QT prolongation ([1]; pre- and post-dose ECG assessments, patients): no evidence of drug-induced QT prolongation
- first cycle (or any cycle) DLTs ([1]; six evaluable patients, 210 mg per day cohort): absence of first cycle (or any cycle) DLTs
- Plasma concentrations (Cmax and AUC values) in patients on PPIs compared to patients not taking PPIs [2]: tended to be lower
- Systemic exposure (Cmax and AUC values) versus dose [2]: tended to increase with increasing dose
- time to steady state (visual observation of pre-dose concentrations) [2]: 8 to 15 days
- accumulation following repeated administration ([2]; 14 day): < 2 fold
- accumulation ratio for AUC0 − 24 (ArAUC0−24) ([2]; 14 day): 1.0-1.9
- accumulation ratio for Cmax (ArCmax) ([2]; 14 day): 0.41-1.72
- accumulation ratios for both ArCmax and ArAUC0−24 ([2]; 14 days): 3-6 fold
- time to steady state ([2]; po): ≤ 15 days
- AUC0 − 24 (h*ng/mL) (mean, SD) ([2]; po, 20 mg): 2066 (387) h*ng/mL
- Cmax (ng/ml) (mean, SD) ([2]; po, 20 mg): 276 (117) ng/ml
- Tmax (h) (median, range) ([2]; po, 20 mg): 1 (0.5–2.1) h
- t1/2 (h) (mean, SD) ([2]; po, 20 mg): 7.4 (2.0) h
- AUC0 − 24 (h*ng/mL) (mean, SD) ([2]; po, 40 mg): 7060 (6711) h*ng/mL
- Cmax (ng/ml) (mean, SD) ([2]; po, 40 mg): 774 (720) ng/ml
- t1/2 (h) (mean, SD) ([2]; po, 40 mg): 9.7 (3.0) h
- AUC0 − 24 (h*ng/mL) (mean, SD) ([2]; po, 70 mg): 6613 (3526) h*ng/mL
- Cmax (ng/ml) (mean, SD) ([2]; po, 70 mg): 467 (257) ng/ml
- Tmax (h) (median, range) ([2]; po, 70 mg): 4.1 (4.0-7.9) h
- AUC0 − 24 (h*ng/mL) (mean, SD) ([2]; po, 100 mg): 18,936 (9188) h*ng/mL
- Cmax (ng/ml) (mean, SD) ([2]; po, 100 mg): 2188 (1037) ng/ml
- Tmax (h) (median, range) ([2]; po, 100 mg): 2.0 (2.0-3.8) h
- t1/2 (h) (mean, SD) ([2]; po, 100 mg): 8.0 (2.3) h
- AUC0 − 24 (h*ng/mL) (mean, SD) ([2]; po, 140 mg): 8150 (2846) h*ng/mL
- Cmax (ng/ml) (mean, SD) ([2]; po, 140 mg): 1335 (964) ng/ml
- Tmax (h) (median, range) ([2]; po, 140 mg): 2.0 (1.0–2.0) h
- t1/2 (h) (mean, SD) ([2]; po, 140 mg): 10.4 (5.5) h
- AUC0 − 24 (h*ng/mL) (mean, SD) ([2]; po, 210 mg): 27,558 (13,349) h*ng/mL
- Cmax (ng/ml) (mean, SD) ([2]; po, 210 mg): 2935 (1047) ng/ml
- Tmax (h) (median, range) ([2]; po, 210 mg): 2.0 (1.0-3.9) h
- t1/2 (h) (mean, SD) ([2]; po, 210 mg): 7.7 (3.4) h
- effect on cultured human cancer cells [3]: cytotoxic or cytostatic
- xenograft tumor response [4]: tumor growth inhibition
- xenograft tumor response [5]: tumor growth inhibition
- xenograft tumor response [6]: profound tumor regression and complete remissions
- xenograft tumor response [7]: similarly profound remissions
- leukemic cell burden (human AML): reduced the leukemic cell burden
- oral bioavailability [8]: high oral bioavailability
- plasma protein binding [9]: highly bound to plasma protein
- metabolism (CYP3A4): metabolized in the liver primarily by CYP3A4
- off-target kinase inhibition (off-target kinase): no relevant off-target kinase inhibition
- dose limiting toxicity in GLP non-clinical safety testing [10]: diarrhea was dose limiting
- myristoylation of ARF6 [11]: inhibits the myristoylation
- toxicities in formal toxicologic evaluation (rats): acute gastrointestinal and hematologic toxicities
- toxicities in formal toxicologic evaluation (dogs): acute gastrointestinal and hematologic toxicities
- accumulation over multiple cycles (pre-dose concentrations) [12]: no accumulation was apparent beyond Day 15
